{"source": "patent US10551384B2", "about": "“MTOR kinase mutations and methods of use thereof” (RUTGERS, THE STATE UNIVERSITY OF NEW JERSEY, priority 2016, dated 2020)", "key": {"TOR2-mTOR L2185C mutant": {"system": "TOR2-mTOR L2185C mutant", "test": "Yeast spotting assay for drug resistance, TOR2-mTOR L2185C", "type": "cell-based, S. cerevisiae", "details": "37° C., amphotericin B present (except OSI-027)", "from_the_text": "FIGS. 4A-C. […] (FIG. 4A) Scheme of a yeast-based screen for drug-resistant mutations in mTOR kinase domain. mTOR kinase domain is amplified by error-prone PCR to generate randomized mutations, which is then recombined in frame into the TOR2-mTOR plasmid by gap-repair in tort-dg cells, and is selected on SC-leucine minus plates. Replica plating is then made onto SC-leucine plates containing DMSO or mTOR kinase inhibitor for selection of drug resistant clones. (FIG. 4B) tor2-dg cells expressing WT or mutant TOR2-mTOR were serially diluted by 10-fold and assayed for sensitivity to different mTOR kinase inhibitors in the presence of amphotericin B. Vector and TOR2 were used as controls. Drug resistant assay was performed at 37° C. in the presence of amphotericin B (except OSI-027). (FIG. 4C) Systematic mutational analysis of L2185 on drug resistance. tort-dg cells expressing WT or mutant TOR2-mTOR carrying all possible mutations at L2185 were serially diluted by 10-fold and tested for sensitivity to different mTOR kinase inhibitors at 37° C.\nTo enhance yeast cell permeability, log phase W303 tort-dg cells were spread evenly on SD-Leu agarose plates. After drying, small sterile filter discs were placed on the surface and 5 μl of indicated mTOR inhibitors or DMSO were applied to each disc with or without adding 5 μl of amphotericin B (10 μM), miconazole (50 μM) or caspofungin (50 μM). Plates were incubated at 37° C. for 3 day. Drug resistance profiles of TOR2-mTOR mutant cells were determined by the spotting assay. For this assay, 10-fold serial dilutions of cells were spotted on SD-leu plates in the presence of indicated mTOR inhibitors with or without amphotericin B (200 nM) and incubated at 37° C. for 3 day."}, "[1]": {"system": "SW480 colorectal cancer cells carrying L2185A mutant mTOR alleles", "test": "SRB growth assay of SW480 cells carrying L2185A mutant mTOR", "type": "cell-based, human", "details": "various concentrations, 2 day", "method": "(§1) (FIG. 5A) SW480 cells carrying homozygous WT mTOR or L2185A mutant alleles were treated with various concentrations of AZD8055, INK-128, OSI-027 and PP242 for 2 day. Growth of SW480 cells was measured by SRB assay. Data represent means±SD in three independent experiments. (FIG. 5B) SW480 cells carrying homozygous WT and L2185A mutant mTOR allele were treated with a single dose of AZD8055 (100 nM), INK-128 (100 nM), OSI-027 (6,000 nM), and PP242 (2,000 nM) for different times. Cell growth was measured by SRB assay. The drug carrier DMSO was used as a control. Data represent means±SD in three independent experiments. (FIG. 5C) SW480 cells carrying homozygous WT and L2185A mutant mTOR were treated with various concentrations of INK-128, OSI-027, AZD8055 and PP242 for 1 hr. The effect on the level of P-S6K, S6K, P-4E-BP1, 4EB-P1, P-AKT and AKT was analyzed by immunoblot. […] The growth of SW480 cells was measured by SRB assay. Data represent means±SD in three independent experiments.\nCancer cell lines were maintained in DMEM or RPMI 1640, supplemented with 10% fetal bovine serum (Invitrogen) and 1% penicillin/streptomycin (Invitrogen). CRISPR/cas9 technology was used to engineer mutant mTOR allele in SW480 colorectal and H460 lung cancer cells. Briefly, The target sequence for mTOR, […] (SEQ ID NO: 3 was designed through the online tool at crispr.mit.edu, and cloned into pSPCas9(BB)-2A-GFP vector (PX458 in Addgene). Genomic mTOR mutation was engineered using a protocol as described (Ran, et al. (2013). Nature protocols 8, 2281-2308) and was confirmed by targeted sequencing.\n(§2) Antibodies against tubulin, S6K, phospho-S6K (Thr389), 4E-BP1, phospho-4E-BP1 (Thr37/46), Akt, phospho-Akt (Thr308), and phospho-Akt (Ser473) were purchased from Cell Signaling Technology. […] For drug sensitivity test, cancer cells were seeded in 96-well plates at a density of 2,000 cells per well. 24 hours later, different concentrations of mTOR inhibitors were added in quadruplicate. Cell growth was measured by the sulforhodamine B (SRB) assay as previously described (Vichai, V., and Kirtikara, K. (2006). Nature protocols 1, 1112-1116)."}, "[2]": {"system": "Flag-mTOR(L2185A) in HEK293T cells", "test": "mTOR signaling immunoblot in HEK293T cells transiently expressing Flag-mTOR(L2185A)", "type": "cell-based, human", "details": "various concentrations, 1 hr, vs WT Flag-mTOR", "method": "(FIG. 10A) Flag-mTOR(L2185A), when transiently expressed in HEK293T cells, confers drug resistance to mTOR kinase inhibitors. HEK293T cells transiently expressing WT and L2185A mutant Flag-mTOR were treated with various concentrations of INK-128, OSI-027 for 1 hr. The effect on the level of P-S6K, S6K, P-4E-BP1, 4EB-P1, P-AKT and AKT was analyzed by immunoblot. (FIG. 10B) Sequencing verification of genome-engineered SW480 and H460 cells carrying homozygous and heterozygous L2185A mutations in mTOR locus. (FIG. 10C) Independent clones of engineered SW480 cells confer similar drug resistance. Cells were treated with various concentrations of AZD8055 and INK-128 for 2 days. Cell growth was measured by SRB assay. Clones #1, 3 carry heterozygous L2185A mutation. Clones #2, 4 carry homozygous L2185A mutation. Data represent means±SD in three independent experiments. (FIG. 10D) SW480 cells carrying heterozygous and homozygous mTOR(L2185A) mutant alleles have similar drug resistance to mTOR kinase inhibitors. SW480 cells carrying homozygous WT and L2185A mutant mTOR alleles were treated with various concentrations of AZD8055, INK-128, OSI-027, and PP242 for 2 days. Cell growth was measured by SRB assay. […] Cell growth was measured by SRB assay. […] The effect on level of P-S6K, P-4E-BP1 and P-AKT was analyzed by immunoblot. […] The growth of H460 cells was measured by SRB assay. […]"}, "[3]": {"system": "mTORC1 and mTORC2 signaling in SW480 mTOR(L2185A) cells", "test": "mTORC1/mTORC2 signaling immunoblot in SW480 cells carrying L2185A mutant mTOR", "type": "cell-based, human", "details": "various concentrations, 1 hr, immunoblot of P-S6K, P-4E-BP1, P-AKT", "method": "as §1, §2"}}, "note": "Entries after “also recorded” stand apart in the source; their conditions may differ."}
{"smiles": "CC(C)n1nc(-c2ccc3oc(N)nc3c2)c2c(N)ncnc21", "note": "[INK128]", "values": [{"measurement": "drug resistance/sensitivity of TOR2-mTOR L2185C mutant yeast", "setting": "TOR2-mTOR L2185C mutant", "result": "confer resistance; also recorded: conferring resistance"}, {"measurement": "drug resistance/sensitivity of cell growth, SW480 L2185A vs WT", "setting": "[1]", "result": "confers resistance"}, {"measurement": "drug resistance of mTOR signaling (P-S6K, P-4E-BP1, P-AKT) with Flag-mTOR(L2185A)", "setting": "[2]", "result": "confers resistance"}, {"measurement": "drug resistance of mTORC1 and mTORC2 signaling, SW480 L2185A vs WT", "setting": "[3]", "result": "drug-resistant signaling by both mTORC1 and mTORC2"}]}
